Entries after “also recorded” stand apart in the source; their conditions may differ.
Columns and labels:
[1] = tested on: explanted kidneys; assay: NAD in explanted kidneys stored in UW Belzer preservation solution; set-up: species or system mouse; conditions: 5 μM P7C3 in ice-cold UW Belzer solution, 16 hours, vs UW Belzer alone
Method: (§1) A, To mimic donor organ harvest, deeply anesthetized mice were flushed intravascularly with ice-cold UW Belzer solution, then placed into ice cold solutions of UW-Belzer with or without 5 μM of P7C3, NAMPT agonist. After 16 hours for the explanted kidneys, organs were analyzed for levels of NAD (pg/μg of protein). B, To mimic donor organ harvest, deeply anesthetized mice were flushed intravascularly with ice-cold UW Belzer solution, then placed into ice cold solutions of UW-Belzer with or without 500 μM, 1 mM or 10 mM Nam. After 3 hours for the explanted hearts, organs were analyzed for levels of NAD (pg/μg of protein). C, NAMPT is the rate-limiting enzyme for the conversion of Nam to NAD via the intermediate NMN (nicotinamide mononucleotide).
(§2) To further expand upon the results from the retrospective cohort of patient study, the conditions of donor organ harvest were mimicked using mice in hopes of improving post-implantation graft performance (FIG. 23). In this experiment, kidney and heart were harvested and Nam or P7C3, a NAMPT agonist, were added to the preservation solution. Upon incubation of kidney with P7C3 in the preservation solution, NAD levels increased as compared to kidney incubated with the UW Belzer solution alone (FIG. 23A). […]

[2] = tested on: mice; assay: Renal NAD and β-OHB after exogenous Nam in mice; type: in vivo, mouse
Method: All chemicals were purchased from Sigma-Aldrich unless otherwise noted. Niacinamide was given by intraperitoneal injection of 400 mg/kg/day×4 days in saline, with the final dose an hour prior to IRI surgery. In rescue experiments, the same dose was administered once 18 hours after reperfusion. Indomethacin was given by intraperitoneal injection of 10 mg/kg in 0.1 M sodium carbonate/saline an hour prior to IRI. […] In brief, amino acids, amines, acylcarnitines, nucleotides, and other cationic polar metabolites were measured in 10 μl of kidney homogenate using hydrophilic interaction liquid chromatography coupled with nontargeted, positive ion mode MS analysis on an Exactive Plus Orbitrap MS (Thermo Scientific). Polar and non-polar lipids were measured in 10 μl of kidney homogenate using C8 chromatography and nontargeted, positive ion mode MS analysis on a Q Exactive MS (Thermo Scientific). […] Results were analyzed in MetaboAnalyst (Xia et al., Nucleic Acids Res. 40 (Web Server issue): […]-33 (2012)). PGE2 was measured in mouse kidney tissue by ELISA (Cayman Chemical). β-OHB (Cayman Chemical) and total NAD (BioVision) was measured in mouse kidney tissue by colorimetric assays. […]

[3] = tested on: mice; assay: Cisplatin nephrotoxicity model; type: in vivo, mouse; conditions: cisplatin 25 mg/kg IP day 0; Nam 400 mg/kg IP on day −1 and day 0
Excerpt: All chemicals were purchased from Sigma-Aldrich unless otherwise noted.

[4] = tested on: PGC1α^−/− mice; assay: Renal ischemia-reperfusion injury (IRI) in PGC1α−/− mice with Nam pretreatment; type: in vivo, mouse
Method: (§3) Renal ischemia-reperfusion injury (IRI) was performed on 8-12 week-old males through two small paramedial dorsal incisions by applying a microvascular clamp to each renal pedicle for 20 minutes. Mice were anesthetized with isoflurane for the duration of surgery and warmed to 37° C. using a servo-controlled heating pad. Incisions were closed in two layers and mice were revived with 1 ml warm saline injected intraperitoneally.
(§4) All chemicals were purchased from Sigma-Aldrich unless otherwise noted. Niacinamide was given by intraperitoneal injection of 400 mg/kg/day×4 days in saline, with the final dose an hour prior to IRI surgery. In rescue experiments, the same dose was administered once 18 hours after reperfusion. Indomethacin was given by intraperitoneal injection of 10 mg/kg in 0.1 M sodium carbonate/saline an hour prior to IRI. […]
(§5) All measurements were performed in a blinded fashion by an independent facility. Creatinine was analyzed by LC/MS-MS at the University of Alabama Birmingham O'Brien Core Center for Acute Kidney Injury Research (NIH P30-DK079337). […]
For metabolomics measurements, snap frozen kidneys were cut to equal weights (20 mg/specimen) and mechanically homogenized into 4 volumes of ice-cold water. […] In brief, amino acids, amines, acylcarnitines, nucleotides, and other cationic polar metabolites were measured in 10 μl of kidney homogenate using hydrophilic interaction liquid chromatography coupled with nontargeted, positive ion mode MS analysis on an Exactive Plus Orbitrap MS (Thermo Scientific). Polar and non-polar lipids were measured in 10 μl of kidney homogenate using C8 chromatography and nontargeted, positive ion mode MS analysis on a Q Exactive MS (Thermo Scientific). […] Results were analyzed in MetaboAnalyst (Xia et al., Nucleic Acids Res. 40 (Web Server issue): W127-33 (2012)). […]

[5] = tested on: PGC1α^−/− animals; assay: Intracardiac lipids after Nam; type: in vivo, mouse; conditions: Nam 400 mg/kg IP
[6] = tested on: renal tubular cells (IMCD3); assay: PGE2 in conditioned media of renal tubular cells; type: cell-based, mouse
Method: Mouse intermedullary collecting duct (IMCD3) cells were obtained from ATCC. […] Cells were transfected with siRNA targeting mouse PGC1, HCAR2 or a negative control siRNA (Qiagen) for 24 h. Niacin, mepenzolate bromide, β-hydroxybutyrate, the NAMPT inhibitor FK866 ([…] et al. Cancer research 2003; 63, 7436-7442), and niacinamide were diluted to the indicated concentrations in serum-free cell culture medium. Prostaglandin E2 (PGE2) was measured in the conditioned media 24-72 hours after treatment.

[7] = tested on: PGC1α KO mice; assay: Cardiac IRI with pressure volume loops in PGC1α KO mice; type: in vivo, mouse; conditions: Nam 400 mg/kg IP, one dose before IRI, two after; 2 weeks after 45 min coronary occlusion
Method: For cardiac IRI surgery, mice were anesthetized, intubated, and placed on a rodent ventilator. After thoracotomy, the left anterior descending artery was identified and ligated with a 7-0 silk suture tied around a specialized 30 gauge catheter. The animal remained under anesthesia and ventilation for 45 minutes of ischemia. Reperfusio was achieved by cutting the suture and re-establishing arterial perfusion. The thoracotomy was then sutured closed and animals recovered with warmed saline injected intraperitoneally.
Pressure volume loops were performed to assess cardiac parameters. Cardiac function was measured in mice using the left ventricle (LV) pressure-volume and echocardiography 2 weeks after cardiac IRI or sham control procedure. After 2% isolfurane inhalant anesthesia, the pressure-volume parameters were measured using a 1.4 French microtip pressure-volume catheter. The catheter was first inserted into the right common carotid artery and then gently advanced into the LV to obtain LV hemodynamic measurements. Data were recorded using a Powerlab system. Beat-by-beat pressure-volume parameters including heart rate, stroke volume, stroke work, and cardiac output were measured and analyzed using Cardiosoft Pro software. […] Two-dimensional guided M-mode images were recorded. […]

[8] = tested on: explanted hearts; assay: NAD in explanted hearts stored in UW Belzer preservation solution; set-up: species or system mouse; conditions: 500 μM, 1 mM or 10 mM Nam in ice-cold UW Belzer solution, 3 hours, vs UW Belzer alone
Method: as §1, §2

[9] = tested on: healthy 8-12 wk old male mice; assay: Renal blood flow by Doppler ultrasound in healthy mice; type: in vivo, mouse; conditions: Nam 400 mg/kg intraperitoneal x 1; 4 h after injection vs pre-Nam
Excerpt: The full method is previously described (Tran et al. J Clin Invest 2011; 121, 4003-4014). Briefly, mice were lightly anesthetized, secured to a heat-controlled stage, and continuously monitored for respiration, ECG, and core temperature. A high frequency, high resolution digital imaging platform with linear array technology and equipped with a high-frequency linear array probe MS550D (22-55 MHz) was used throughout the study (Vevo 2100 Visual Sonics). The flow volume was modeled as a circular cylinder of length equal to the average velocity time integral and diameter measured empirically (n=3 cardiac cycles), then multiplied by the heart rate (bpm), then converted from mm^3/min to ml/min. All measurements and analyses were performed by a single blinded operator (EVK).

[10] = tested on: mice with established AKI; assay: Nam rescue of established ischemic AKI (single dose 18 h after reperfusion); type: in vivo, mouse; conditions: Nam 400 mg/kg IP x 1, 18 h after onset of reperfusion
Method: as §3, §4, §5

[11] = tested on: iNephPGC1α mice; assay: Renal IRI in iNephPGC1α mice with inhibition of β-OHB signaling or prostaglandin synthesis; type: in vivo, mouse; conditions: 10 mg/kg IP one hour prior to IRI
Method: as §3, §4, §5

[12] = tested on: NNMT in cultured renal tubular cells (IMCD3); conditions: 24 hr exposure to 1-Me-Nam
Method: LC-MS assays were developed for multiplex quantification of Nam, NAD, and β-hydroxybutyrate (β-OHB) from cellular experiments. NAD measurements reflect total NAD^+ plus NADH. Briefly, conditioned medium was extracted with methanol (80% methanol final concentration) spiked with isotopic standards for Nam and β-OHB (CDN Isotopes, Inc.). Precipitated proteins were removed by centrifugation, and supernatants were analyzed directly. For analysis of cell lysates, cells were washed with ice-cold PBS, scraped and lysed on dry ice into methanol containing isotopic standards. After extraction, cell and media supernatants were analyzed by LC-MS/MS using reverse-phase chromatography (NAM and NAD/NADH) or hydrophilic interaction chromatography (β-OHB) coupled to tandem mass spectrometry using an API 5000 triple quadruple mass spectrometer. Analytes were quantified by multiple reaction monitoring using the following m/z transitions: β-OHB 103.1>59, β-OHB IS 105.1>60, NAM 123.3>80.2, NAM IS 127.3>84.2, NAD/NADH 664.2>542.0. Eluting peaks were quantified by area under the curve (AUC).
Mouse intermedullary collecting duct (IMCD3) cells were obtained from ATCC. […] Cells were transfected with siRNA targeting mouse PGC1, HCAR2 or a negative control siRNA (Qiagen) for 24 h. […] Prostaglandin E2 (PGE2) was measured in the conditioned media 24-72 hours after treatment.

OC(CNc1ccccc1)Cn1c2ccc(Br)cc2c2cc(Br)ccc21 (stereo not shown) [P7C3]
NAD levels in explanted kidneys [1]: increased; also recorded: can boost NAD levels

NC(=O)c1cccnc1 [Nam, niacinamide]
renal NAD ([2]; 4 h after a single IP Nam dose (100-400 mg/kg)): dose-dependently increased; also recorded: can increase renal NAD levels
renal β-OHB accumulation relative to normal circulating concentrations ([2]; Nam 400 mg/kg IP x 4 d, p<0.0001): ten-fold
cisplatin-induced AKI (serial serum creatinine) [3]: prevented
renal Nam ([4]; Nam 400 mg/kg IP x 4 d, with and without IRI 24 h before tissue collection, p<0.001): increased
post-ischemic fat accumulation (Oil Red O) ([4]; Nam pretreatment 400 mg/kg IP x 4 d, 24 h after IRI): normalized
post-ischemic AKI (serum creatinine) ([4]; PGC1α−/− mice, Nam 400 mg/kg/day IP x 4 d, last dose 1 h before IRI): completely prevented
intracardiac di- and tri-acylglycerols (DAG, TAG) [5]: decline markedly
intracardiac phospholipids [5]: largely unaltered
PGE2 secretion ([6]; Nam 1 μM for 24 h): augmented
contraction (dP/dt max) [7]: improved
relaxation (dP/dt min) [7]: improved
NAD levels in explanted hearts [8]: increased; also recorded: can boost NAD levels
renal blood flow [9]: improved
renal function (serial serum creatinine) in established AKI [10]: significantly improved; also recorded: attenuated; also recorded: rapidly improved

C[N+]1(C)CCCC(OC(=O)C(O)(c2ccccc2)c2ccccc2)C1 (stereo not shown) [mepenzolate bromide]
renal protection (serum creatinine 24 h after IRI) [11]: abolished

C[n+]1cccc(C(N)=O)c1 [1-Me-Nam, 1-methyl-niacinamide]
NAD in IMCD3 cells [12]: dose-dependent induction of NAD

COc1ccc2c(c1)c(CC(=O)O)c(C)n2C(=O)c1ccc(Cl)cc1 [indomethacin]
renal protection (serum creatinine 24 h after IRI) [11]: abolished

CC(O)CC(=O)O (stereo not drawn) [β-OHB, beta-hydroxybutyrate]
PGE2 secretion in PGC1α-silenced cells ([6]; exogenous β-OHB 5 mM, p<0.0001): still able to induce PGE2 secretion

Source: patent US11116784B2, “Niacinamide (NAM) in ischemic tissue injury” (Beth Israel Deaconess Medical Center, Inc., priority 2016, dated 2021)
